# Values of other authors as cited in US20020006953A1, “MODIFICATION OF CHOLESTEROL CONCENTRATIONS WITH CITUS PHYTOCHEMICALS” (priority 1999, published 2002).
# Assays:
# [1] = 10% hesperidin diet
SMILES,activity of lipase (lipase),plasma concentration of triacylglycerols [1],net secretion of apo B (HepG2 cells)
COc1ccc([C@@H]2CC(=O)c3c(O)cc(O[C@@H]4O[C@H](CO[C@@H]5O[C@@H](C)[C@H](O)[C@@H](O)[C@H]5O)[C@@H](O)[C@H](O)[C@H]4O)cc3O2)cc1O [hesperidin],inhibit,significantly reduced,
O=C1C[C@@H](c2ccc(O)cc2)Oc2cc(O)cc(O)c21 [naringinin],,,reduced
COc1ccc([C@@H]2CC(=O)c3c(O)cc(O)cc3O2)cc1O [hesperetin],,,reduced
